Data set [1] is described as follows: Screening of protected amino acid derivatives as solubilizers and inhibitor of crystallization for JP4-039. Type of data set: physicochemical. As to the method:
In several studies, we compared a group of ε-Boc-lysine derivatives bearing various modifying groups on the α-NH2 position. […] FIG. 1 illustrates structures of various amino acid derivatives studied in solubility studies of JP4-039 in Table 3. […] In Table 3, the followings designations are used: U—Initially soluble but unstable after 5 min; V—forming vesicles; I—insoluble; and S—soluble.
1(b). Screening of protected amino acid derivatives as solubilizers and inhibitor of crystallization for JP4-039. α-acetyl-ε-Boc-lysine, α-iso-butoxycarbamoyl-ε-Boc-lysine were synthesized from α-NH2-ε-Boc-lysine (1 mmole) dissolved in 5 mL of saturated sodium bicarbonate solution by adding a 4-fold excess of acetyl anhydride or isobutyl chloroformate dissolved in 5 mL of THF over a period of 5 minutes, respectively. THF was removed from the reaction mixture, the remaining mixture was diluted with 50 mL of ethyl acetate. The organic phase was washed with 20 mL of saturated NaHCO3, saline, citric acid (0.5 M) and water sequentially. The organic phase was dried over anhydrous sodium sulfate, and the solvent was removed. The solid residues were recrystallized from ethyl acetate/hexanes mixture. These derivatives, together with a panel of commercially available amine protected derivatives of lysine, phenylalanine, and glycine were prepared as 1-100 mM solution or suspension in 0.1 M Na2HPO4 buffer. Meanwhile, 0.447 μg of JP4-039 dissolved in 5 μL of methanol was added to each well of a 96-well polystyrene plate. One hundred μL of amino acid solution/suspension were added to the methanol solution and mixed well. The physical status of the samples in each well was inspected visually for the physical appearance of brown crystals periodically over 2 h. Some samples were photographed under a microscope after 20 min.

The conditions of data set [2]: for Physical form on hydration: 1 mg at 1 mg/ml. From the text: Additional representative studies of paclitaxel PTX loaded onto a carrier agent including only a hydrophilic segment, region or domain conjugated to a drug-interactive segment, region or domain are set forth below.
A further data set can be described thus: physchem. The source says: The exact mechanism for the protection of ECGC against oxygen in the form of complex is unknown.
Data set [3] is described as follows: Particle size measurement by laser dynamic light scattering. It counts as physicochemical. The conditions noted are these: for Size +/− SD: agent formulated with multi-chain PEGylated micelle-forming surfactant; for Particle Sizes w/o JP4-039: empty micelles. As for the experimental part: 1(f). Particle size measurement. […] Samples were further diluted ten times in distilled water and sizes were measured by laser dynamic light scattering using a particle sizer (Zetasizer Nano ZS instrument, available from Malvern Instruments Ltd of Worcestershire, United Kingdom). Size measurement of emulsion particles were conducted using a Coulter N4 particle sizer after a 100-fold dilution in saline.

A short description of data set [4]: Critical micelle concentration (Eosin Y red shift). Type of data set: physicochemical. As for the experimental part: 1(d). Critical micelle concentration (CMC). CMC was determined based on the red shift of the maximal absorption of Eosin Y when incorporated into more hydrophobic microenvironment in the core of micelle. Eosin Y solution was added to a final concentration of 1 mM to a series of surfactant solution prepared in distilled water and incubated for 30 minute at room temperature. OD542 nm was measured and plotted against surfactant concentration from which CMC values were estimated.

A short description of data set [5]: PTX loading and formulation stability of PTX/PEG-Fmoc2 mixed micelles (HPLC). It counts as physicochemical. The source says:
DLC (%)=[weight of drug used/(weight of polymer+drug used)]×100%
DLE (%)=(weight of loaded drug/weight of input drug)×100%
2(b)(iv). Preparation and biophysical characterization of PTX/PEG-Fmoc2 mixed micelles. Thin-film hydration method was utilized for preparation of PTX/PEG-Fmoc2 mixed nanomicelles. PEG-Fmoc2 and PTX in chloroform were well mixed in a glass tube at designated molar ratios. A thin film of carrier/drug mixture was generated through removal of the organic solvent by a gentle stream of nitrogen. The trace amount of solvent was further removed via vacuum for 2 h. Then the film was hydrated and suspended in DPBS by vortex to obtain a clear solution of PTX/PEG-Fmoc2 mixed nanomicelles. […]
The size distribution of PTX/PEG-Fmoc2 mixed nanomicelles was examined by dynamic light scattering (DLS) via a Malvern Zeta Nanosizer, and the morphology was observed by transmission electron microscopy (TEM) after negative staining. The CMC measurement was performed as reported before with pyrene as a fluorescence probe. To quantify PTX in the micelles, PTX was extracted by methanol, and detected by Waters Alliance 2695-2998 high-performance liquid chromatography (HPLC) system with a RP-18 column (250 mm×4.6 mm) equipped with a UV detector at 227 nm at room temperature. […] The drug loading capacity (DLC) and efficiency (DLE) were calculated as set forth above.

Setting [6] is: carrier Methoxy-PEG550-α-Fmoc-lysyl-ε-oleylamide (20 mg/ml).
Where [7] appears, read: aqueous with cosolvent or surfactant or cyclodextrin.

In brackets after ≈: the same amount, converted by molar mass. Like-named read-outs stand apart in the source and are kept apart here. Bounds are passed on as bounds.

Regarding `CC(=O)N[C@@H](CCCCNC(=O)OCc1ccccc1)C(=O)O` [Ace-(Cbz)-Lys-OH], the “Solubility status of JP4-039 with amino acid derivative” value (“Solubility status” for short) in data set [1] (molar ratio 5) was “I”; in data set [1] (molar ratio 10) it was “I”; in data set [1] (molar ratio 20) it was “I”; in data set [1] (molar ratio 30) it was “I”; in data set [1] (molar ratio 40), “I”; in data set [1] (molar ratio 50) it was “S”.

Take `O=C(N[C@@H](Cc1ccccc1)C(=O)O)c1ccccc1` [Benz-Phe-OH]: the “Solubility status” value is “I” in data set [1] (molar ratio 5) and “S” in data set [1] (molar ratio 50).

As for `CC(=O)NCCCC[C@H](NC(=O)OCc1ccccc1)C(=O)O` [CBz-(Ace)-Lys-OH], the “Solubility status” value was “I” in data set [1] (molar ratio 5); “I” in data set [1] (molar ratio 10); “I” in data set [1] (molar ratio 20); “I” in data set [1] (molar ratio 30); “I” in data set [1] (molar ratio 40); “S” in data set [1] (molar ratio 50).

For `CC(C)(C)OC(=O)NCCCC[C@H](NC(=O)OCc1ccccc1)C(=O)O` [Cbz-(tBoc)-Lys-OH], the “Solubility status” value in data set [1] (molar ratio 5) is reported as “I”; in data set [1] (molar ratio 10), “I”; in data set [1] (molar ratio 20) it was “I”; in data set [1] (molar ratio 30), “I”; in data set [1] (molar ratio 40), “S”; in data set [1] (molar ratio 50), “S”.

For the molecule `O=C(O)CCNC(=O)OCc1ccccc1` [Cbz-β-Ala-OH], the “Solubility status” value in data set [1] (molar ratio 5), in data set [1] (molar ratio 10), in data set [1] (molar ratio 20), in data set [1] (molar ratio 30), in data set [1] (molar ratio 40) and in data set [1] (molar ratio 50) was “I” throughout.

For `COc1cc(/C=C/C(=O)CC(=O)/C=C/c2ccc(O)c(OC)c2)ccc1O` [Curcumin], the “Stability of suspension upon hydration” value in data set [2] is approximately 1 h. Moreover, the “Physical form on hydration” value in data set [2] (setting [6]) is on record as “micelle solution”; in data set [2] (carrier Methoxy-PEG1000-α-Fmoc-lysyl-ε-(α-Fmoc-ε-Boc lysine), 20 mg/ml), 1 mg at 1 mg/ml, viscous gel; in data set [2] (carrier Methoxy-PEG1000-α-Fmoc-lysyl-ε-(α-Fmoc-ε-Boc lysine), 20 mg/ml, listed as curcumin), “suspension”.

In the case of `O=C(NCCCC[C@H](NC(=O)OCc1ccccc1)C(=O)O)OCc1ccccc1` [Di-(Cbz)-Lys-OH], the “Solubility status” value in data set [1] (molar ratio 5) was “I”; in data set [1] (molar ratio 10) it was “I”; in data set [1] (molar ratio 20), “S”; in data set [1] (molar ratio 30), “S”; in data set [1] (molar ratio 40), “S”; in data set [1] (molar ratio 50), “S”.

As to `C=CC[C@@H]1/C=C(\C)C[C@H](C)C[C@H](OC)[C@H]2O[C@@](O)(C(=O)C(=O)N3CCCC[C@H]3C(=O)O[C@H](/C(C)=C/[C@@H]3CC[C@@H](O)[C@H](OC)C3)[C@H](C)[C@@H](O)CC1=O)[C@H](C)C[C@@H]2OC` [FK506, tacrolimus], the “Drug:carrier mole ratio” value in the data set “physchem” is listed as 1:1 to 1:1.5. Besides, in “physchem” (setting [7]), the solubility is 2500 µg/mL (≈ 3110 µM). For the same molecule, in data set [3], the “Size +/− SD” value is recorded as 62.3 +/− 9 nm.

As for `CC(C)(C)OC(=O)NCCCC[C@H](NC(=O)OCC1c2ccccc2-c2ccccc21)C(=O)O` [Fmoc-(tBoc)-Lys-OH, α-Fmoc-ε-tBoc-lysine], the “Solubility status” value in data set [1] (molar ratio 5), in data set [1] (molar ratio 10), in data set [1] (molar ratio 20), in data set [1] (molar ratio 30), in data set [1] (molar ratio 40) and in data set [1] (molar ratio 50) was “S” throughout. The “Measured diameters of the majority of particles” value in data set [3] (prepared in 0.1 M KHCO3) is listed as 2-5 nm.

For `CC(C)c1onc(-c2c(Cl)cccc2Cl)c1COc1ccc(/C=C/c2cccc(C(=O)O)c2)c(Cl)c1` [GW4064], in “physchem”, the “Drug:carrier mole ratio” value is listed as 2:1 to 1:1, the Soluble at was more than 5 mg/mL and the solubility was 0.002 µg/mL (≈ 0.00368 µM). Further, in data set [3], the “Size +/− SD” value is listed as 35.4 +/− 12 nm.

Consider `COc1ccc2c(c1)c(CC(=O)O)c(C)n2C(=O)c1ccc(Cl)cc1` [Indomethacin], for which, in data set [2] (setting [6]), the “Physical form on hydration” value is on record as “micelle solution”.

In the case of `O=C([O-])c1c(Cl)c(Cl)c(Cl)c(Cl)c1-c1c2cc(I)c(=O)c(I)c-2oc2c(I)c([O-])c(I)cc12.[Na+].[Na+]` [Rose Bengal], in the data set “physchem”, the “Drug:carrier mole ratio” value is listed as 2.5:1 to 2:1^, the Soluble at was more than 5 mg/mL and the solubility result is on record as “freely”. The “Size +/− SD” value in data set [3] is on record as 101.6 +/− 7 nm.

Turning to `CC/C(=C(\c1ccccc1)c1ccc(OCCN(C)C)cc1)c1ccccc1` [Tamoxifen], in data set [2], the “Stability of suspension upon hydration” value was approximately 1 h. For the same molecule, the “Physical form on hydration” value in data set [2] (setting [6]) was “micelle solution”.

For the molecule `C=CC1=C(C)c2cc3[nH]c(cc4nc(cc5[nH]c(cc1n2)c(C)c5CCC(=O)O)C(CCC(=O)O)=C4C)c(C)c3C=C` [protoporphyrin IX], the “Drug:carrier mole ratio” value in “physchem” is 1:6 to 1:10. Also, the solubility was approximately 1 µg/mL (≈ 1.78 µM) in “physchem” and 500 µg/mL (≈ 889 µM) in “physchem” (setting [7]).

As for `CC(C)(C)OC(=O)N[C@@H](CCCCNC(=O)OCc1ccccc1)C(=O)O` [tBoc-(Cbz)-Lys-OH], the “Solubility status” value in data set [1] (molar ratio 5) is reported as “I”; in data set [1] (molar ratio 10), “I”; in data set [1] (molar ratio 20), “I”; in data set [1] (molar ratio 30), “I”; in data set [1] (molar ratio 40), “I”; in data set [1] (molar ratio 50), “S”.

Consider Isb-(Cbz)-Lys-OH, for which the “Solubility status” value in data set [1] (molar ratio 5) is “I”; in data set [1] (molar ratio 10), “S”; in data set [1] (molar ratio 20), “S”; in data set [1] (molar ratio 30), “S”; in data set [1] (molar ratio 40) it was “S”; in data set [1] (molar ratio 50), “S”.

Take “Monomethoxy PEG2,000-lysyl-(α-Fmoc-ε-oleoyl lysine)2 [lipopeptide 3]”: the CMC in data set [4] stood at 4.2 µM. In data set [3] (JP4-039 loaded micelles), the “Particle Sizes w/JP4-039” value was 94.2 +/− 1.7 nm. Also, the “Particle Sizes w/o JP4-039” value in data set [3] is given as 106.7 +/− 2.5 nm.

As for “Monomethoxy PEG2,000-α-Fmoc-ε-Oleoyl Lysine [lipopeptide 1]”, the CMC in data set [4] amounted to 5.0 µM.

As to “Monomethoxy PEG5,000-lysyl-[lysyl-(α-Fmoc-ε-oleoyl lysine)2]2 [lipopeptide 4]”, the CMC in data set [4] was found to be 3.4 µM. Moreover, in data set [3], the “Particle Sizes w/o JP4-039” value was 132.1 +/− 8.5 nm.

Consider “PEG5000-lysyl-(α-Fmoc-ε-oleic acid-lysine)2 [PEG-Fmoc-OA]”, for which the “Stability in solution at maximum PTX loading” value in data set [5] is listed as “several hours”. Moreover, the “PTX loading capacity (maximum)” value in data set [5] (w/w, stable complexes in aqueous solution) is given as 15%.
